Converted amounts (≈) assume the structure as drawn.
Assays:
Format in all cases: functional
Penicillium sp. [1] = assay: Antifungal activity against Penicillium sp. at 25 ug/disk after 48 hr by disk diffusion method; settings: for zone of inhibition at 25 µg/disc: read-out: DIZ
Fusarium verticillioides [2] = assay: Antifungal activity against Fusarium verticillioides at 25 ug/disk after 48 hr by disk diffusion method; settings: for zone of inhibition at 25 µg/disc: read-out: DIZ
Trichoderma [3] = assay: Antifungal activity against Trichoderma sp. at 25 ug/disk after 48 hr by disk diffusion method; settings: for zone of inhibition at 25 µg/disc: read-out: DIZ
Fusarium oxysporum [4] = assay: Antifungal activity against Fusarium oxysporum at 25 ug/disk after 48 hr by disk diffusion method; settings: for zone of inhibition at 25 µg/disc: read-out: DIZ
Aspergillus flavus [5] = assay: Antifungal activity against Aspergillus flavus at 25 ug/disk after 48 hr by disk diffusion method; settings: for zone of inhibition at 25 µg/disc: read-out: DIZ
Aspergillus niger [6] = assay: Antifungal activity against Aspergillus niger at 25 ug/disk after 48 hr by disk diffusion method; settings: for zone of inhibition at 25 µg/disc: read-out: DIZ
Penicillium sp. [7] = assay: Antifungal activity against Penicillium sp. after 48 hr by microdilution method
Fusarium verticillioides [8] = assay: Antifungal activity against Fusarium verticillioides after 48 hr by microdilution method
Trichoderma [9] = assay: Antifungal activity against Trichoderma sp. after 48 hr by microdilution method
Aspergillus flavus [10] = assay: Antifungal activity against Aspergillus flavus after 48 hr by microdilution method
Fusarium oxysporum [11] = assay: Antifungal activity against Fusarium oxysporum after 48 hr by microdilution method
Aspergillus niger [12] = assay: Antifungal activity against Aspergillus niger after 48 hr by microdilution method
Xanthomonas oryzae [13] = assay: Antibacterial activity against Xanthomonas oryzae at 25 ug/disk after 24 hr by disk diffusion method; settings: read-out: DIZ
[14] = system: Xanthomonas euvesicatoria pv. sesami; assay: Antibacterial activity against Xanthomonas campestris pv. sesami at 25 ug/disk after 24 hr by disk diffusion method; settings: read-out: DIZ
Pseudomonas fluorescens [15] = assay: Antibacterial activity against Pseudomonas fluorescens at 25 ug/disk after 24 hr by disk diffusion method; settings: read-out: DIZ
Escherichia coli [16] = assay: Antibacterial activity against Escherichia coli at 25 ug/disk after 24 hr by disk diffusion method; settings: read-out: DIZ
Bacillus subtilis [17] = assay: Antibacterial activity against Bacillus subtilis at 25 ug/disk after 24 hr by disk diffusion method; settings: read-out: DIZ
Xanthomonas oryzae [18] = assay: Antibacterial activity against Xanthomonas oryzae by microdilution method
[19] = system: Xanthomonas euvesicatoria pv. sesami; assay: Antibacterial activity against Xanthomonas campestris pv. sesami by microdilution method
Pseudomonas fluorescens [20] = assay: Antibacterial activity against Pseudomonas fluorescens by microdilution method
Escherichia coli [21] = assay: Antibacterial activity against Escherichia coli by microdilution method
Bacillus subtilis [22] = assay: Antibacterial activity against Bacillus subtilis by microdilution method

Molecule	MIC (Penicillium sp. [7]) [µg/mL]	MIC (Fusarium verticillioides [8]) [µg/mL]	MIC (Trichoderma [9]) [µg/mL]	MIC (Aspergillus flavus [10]) [µg/mL]	MIC (Fusarium oxysporum [11]) [µg/mL]	MIC (Aspergillus niger [12]) [µg/mL]	zone of inhibition at 25 µg/disc (Penicillium sp. [1]) [mm]	zone of inhibition at 25 µg/disc (Fusarium verticillioides [2]) [mm]	zone of inhibition at 25 µg/disc (Trichoderma [3]) [mm]	zone of inhibition at 25 µg/disc (Fusarium oxysporum [4]) [mm]	zone of inhibition at 25 µg/disc (Xanthomonas oryzae [13]) [mm]	zone of inhibition at 25 µg/disc [14] [mm]	zone of inhibition at 25 µg/disc (Pseudomonas fluorescens [15]) [mm]	zone of inhibition at 25 µg/disc (Escherichia coli [16]) [mm]	zone of inhibition at 25 µg/disc (Bacillus subtilis [17]) [mm]	MIC (Xanthomonas oryzae [18]) [µg/mL]	MIC [19] [µg/mL]	MIC (Pseudomonas fluorescens [20]) [µg/mL]	MIC (Escherichia coli [21]) [µg/mL]	MIC (Bacillus subtilis [22]) [µg/mL]	other results
NYSTATIN	10	9	12	15	11	15	–	–	–	–	–	–	–	–	–	–	–	–	–	–	inhibition zone (IZ) (Penicillium sp. [1]): 10 mm; inhibition zone (IZ) (Fusarium verticillioides [2]): 12 mm; inhibition zone (IZ) (Trichoderma [3]): 16 mm; inhibition zone (IZ) (Fusarium oxysporum [4]): 14 mm; inhibition zone (IZ) (Aspergillus flavus [5]): 10 mm; inhibition zone (IZ) (Aspergillus niger [6]): 8 mm
CCc1ccc(CCOc2ccc(C3=NOC(C(=O)OC)C3)cc2)nc1 (stereo not drawn)	24 (≈ 67.7 µM)	22 (≈ 62.1 µM)	20 (≈ 56.4 µM)	24 (≈ 67.7 µM)	20 (≈ 56.4 µM)	22 (≈ 62.1 µM)	2	3	5	4	3	3	5	6	5	27 (≈ 76.2 µM)	22 (≈ 62.1 µM)	22 (≈ 62.1 µM)	24 (≈ 67.7 µM)	27 (≈ 76.2 µM)	zone of inhibition at 25 µg/disc (Aspergillus flavus [5]): 4 mm; zone of inhibition at 25 µg/disc (Aspergillus niger [6]): 3 mm
CCc1ccc(CCOc2ccc(C3=NOC(c4ccccc4)C3)cc2)nc1 (stereo not drawn)	23 (≈ 61.8 µM)	20 (≈ 53.7 µM)	20 (≈ 53.7 µM)	24 (≈ 64.4 µM)	21 (≈ 56.4 µM)	22 (≈ 59.1 µM)	3	3	6	4	4	4	6	6	5	25 (≈ 67.1 µM)	27 (≈ 72.5 µM)	26 (≈ 69.8 µM)	28 (≈ 75.2 µM)	27 (≈ 72.5 µM)	zone of inhibition at 25 µg/disc (Aspergillus flavus [5]): 4 mm; zone of inhibition at 25 µg/disc (Aspergillus niger [6]): 3 mm
CCOC(=O)C1CC(c2ccc(OCCc3ccc(CC)cn3)cc2)=NO1 (stereo not drawn)	11 (≈ 29.9 µM)	12 (≈ 32.6 µM)	14 (≈ 38 µM)	18 (≈ 48.9 µM)	14 (≈ 38 µM)	17 (≈ 46.1 µM)	8	9	12	11	9	9	13	12	11	16 (≈ 43.4 µM)	14 (≈ 38 µM)	16 (≈ 43.4 µM)	16 (≈ 43.4 µM)	20 (≈ 54.3 µM)	zone of inhibition at 25 µg/disc (Aspergillus flavus [5]): 8 mm; zone of inhibition at 25 µg/disc (Aspergillus niger [6]): 6 mm
CN(C)[C@@H]1C(O)=C(C(N)=O)C(=O)[C@@]2(O)C(O)=C3C(=O)c4c(O)cccc4[C@@](C)(O)[C@H]3C[C@@H]12 [TETRACYCLINE]	–	–	–	–	–	–	–	–	–	–	12	12	–	–	–	13 (≈ 29.3 µM)	9 (≈ 20.3 µM)	–	–	–	–
CCc1ccc(CCOc2ccc(C3=NOC(CO)C3)cc2)nc1 (stereo not drawn)	9 (≈ 27.6 µM)	10 (≈ 30.6 µM)	13 (≈ 39.8 µM)	16 (≈ 49 µM)	10 (≈ 30.6 µM)	15 (≈ 46 µM)	11	12	15	15	13	13	17	13	14	12 (≈ 36.8 µM)	10 (≈ 30.6 µM)	12 (≈ 36.8 µM)	14 (≈ 42.9 µM)	18 (≈ 55.1 µM)	zone of inhibition at 25 µg/disc (Aspergillus flavus [5]): 9 mm; zone of inhibition at 25 µg/disc (Aspergillus niger [6]): 8 mm
CCc1ccc(CCOc2ccc(C3=NOC(C#N)C3)cc2)nc1 (stereo not drawn)	20 (≈ 62.2 µM)	18 (≈ 56 µM)	20 (≈ 62.2 µM)	21 (≈ 65.3 µM)	19 (≈ 59.1 µM)	20 (≈ 62.2 µM)	2	10	4	5	4	5	6	7	7	22 (≈ 68.5 µM)	20 (≈ 62.2 µM)	23 (≈ 71.6 µM)	21 (≈ 65.3 µM)	27 (≈ 84 µM)	zone of inhibition at 25 µg/disc (Aspergillus flavus [5]): 3 mm; zone of inhibition at 25 µg/disc (Aspergillus niger [6]): 2 mm
CN[C@@H]1[C@H](O[C@H]2[C@H](O[C@H]3[C@H](O)[C@@H](O)[C@H](N=C(N)N)[C@@H](O)[C@@H]3N=C(N)N)O[C@@H](C)[C@]2(O)C=O)O[C@@H](CO)[C@H](O)[C@H]1O [STREPTOMYCIN]	–	–	–	–	–	–	–	–	–	–	–	–	17	14	13	–	–	12 (≈ 20.6 µM)	13 (≈ 22.4 µM)	19 (≈ 32.7 µM)	–
CCc1ccc(CCOc2ccc(C3=NOC(Cc4ccc(OC)c(OC)c4)C3)cc2)nc1 (stereo not drawn)	12 (≈ 26.9 µM)	11 (≈ 24.6 µM)	15 (≈ 33.6 µM)	17 (≈ 38.1 µM)	13 (≈ 29.1 µM)	18 (≈ 40.3 µM)	8	10	13	12	9	10	14	15	14	15 (≈ 33.6 µM)	11 (≈ 24.6 µM)	15 (≈ 33.6 µM)	15 (≈ 33.6 µM)	20 (≈ 44.8 µM)	zone of inhibition at 25 µg/disc (Aspergillus flavus [5]): 7 mm; zone of inhibition at 25 µg/disc (Aspergillus niger [6]): 6 mm
CCc1ccc(CCOc2ccc(C3=NOC(Cc4ccc(O)c(OC)c4)C3)cc2)nc1 (stereo not drawn)	11 (≈ 25.4 µM)	10 (≈ 23.1 µM)	13 (≈ 30.1 µM)	15 (≈ 34.7 µM)	12 (≈ 27.7 µM)	16 (≈ 37 µM)	9	11	15	13	12	13	18	14	12	13 (≈ 30.1 µM)	10 (≈ 23.1 µM)	12 (≈ 27.7 µM)	14 (≈ 32.4 µM)	18 (≈ 41.6 µM)	zone of inhibition at 25 µg/disc (Aspergillus flavus [5]): 10 mm; zone of inhibition at 25 µg/disc (Aspergillus niger [6]): 7 mm
CCc1ccc(CCOc2ccc(C3=NOC(Cc4ccc5c(c4)OCO5)C3)cc2)nc1 (stereo not drawn)	21 (≈ 48.8 µM)	18 (≈ 41.8 µM)	20 (≈ 46.5 µM)	21 (≈ 48.8 µM)	22 (≈ 51.1 µM)	22 (≈ 51.1 µM)	2	3	4	4	3	4	7	6	5	22 (≈ 51.1 µM)	21 (≈ 48.8 µM)	20 (≈ 46.5 µM)	22 (≈ 51.1 µM)	25 (≈ 58.1 µM)	zone of inhibition at 25 µg/disc (Aspergillus flavus [5]): 3 mm; zone of inhibition at 25 µg/disc (Aspergillus niger [6]): 3 mm
